According to US5006531A, “5,6-dihydro(1H-indolo(3,2-C)quinoline-6,4'-piperidines) and related compounds which are useful for treating pain, psychosis or convulsions” (Hoechst-Roussel Pharmaceuticals Inc., priority 1989, dated 1991):
Where a name gives a salt, the structure may show the parent alone.

Columns and labels:
Format in all cases: in vivo
male mice = experiment: supramaximal electroshock (SES) assay in the mouse (anticonvulsant activity)
Method: Compounds I of the present invention are also useful as anticonvulsant agents due to their anticonvulsant activity in mammals. Anticonvulsant activity is measured in the mouse using the supramaximal electroshock (SES) assay described in Arch. Int. Pharmacodyn. 92: 97-107, 1952. In this procedure groups of male mice, 18-30 grams, are used. Drugs are prepared using distilled water and, if insoluble, a surfactant is added. Control animals receive vehicle. Drugs are routinely administered intraperitoneally (i.p.). The dosage volume is 10 ml/kg. A primary screen is given a 30 minute pretreat. The animal's eyes are placed across the output terminals of an A.C. shocker that delivers 206 volts rms for 300 msec. Electrode paste coats the animal's eyes at the point of contact with the terminals. […] Protection is expressed as normalized percent inhibition relative to vehicle control.
A time response is carried out using six animals/group. Animals are tested at 30, 60 and 120 minutes postdrug. Additional time periods are tested if indicated by previous tests. When the peak activity time has been determined, a dose response is initiated using 10 animals/group at that time period. The ED50 and 95% confidence interval are calculated by computer probit analysis.
Test results of supramaximal electroshock for a compound of this invention along with a result for a reference compound are presented in Table 3.

CK-1 male mice = experiment: climbing mice assay (apomorphine-induced climbing, antipsychotic activity); conditions: Mus musculus, apomorphine 1.5 mg/kg s.c.
Method: Antipsychotic activity is determined in the climbing mice assay by methods similar to those described by P. Protais, et al., Psychopharmacol., 50, 1 (1976) and B. Costall, Eur. J. Pharmacol., 50, 39, (1978).
The subject CK-1 male mice (23-27 grams) are group-housed under standard laboratory conditions. The mice are individually placed in wire mesh stick cages (4"×4" by 10") and are allowed one hour for adaptation and exploration of the new environment. Then apomorphine is injected subcutaneously at 1.5 mg/kg, a dose causing climbing in all subjects for 30 minutes. Compounds to be tested for antipsychotic activity are injected intraperitoneally 30 minutes prior to the apomorphine challenge at a screening dose of 10 mg/kg.
For evaluation of climbing, 3 readings are taken at 10, 20 and 30 minutes after apomorphine administration according to the following scale:
4 paws on bottom (no climbing)
2 paws on the wall (rearing)
4 paws on the wall (full climb)
Mice consistently climbing before the injection of apomorphine are discarded.
With full-developed apomorphine climbing, the animals are hanging onto the cage walls, rather motionless, over long periods of time. By constrast, climbs due to mere motor stimulation usually last only a few seconds.
The climbing scores are individually totaled (maximum score: 6 per mouse over 3 readings) and the total score of the control group (vehicle intraperitoneally; apomorphine subcutaneously) is set to 100%. ED50 values with 95% confidence limits, calculated by a linear regression analysis, of some of the compounds of this invention are presented in Table 2.
Results of the climbing mice assay for some of the compounds of this invention along with a result for a reference compounds are presented in Table 2.

mice = experiment: 2-phenyl-1,4-benzoquinone-induced writhing (PQW) test in mice (analgesic activity); conditions: for PQW: s.c.
Excerpt: Compounds I of the present invention are useful as analgesic agents due to their ability to alleviate pain in mammals. […] Exptl. Biol. Med., 95, 729 (1957)].

[1] = ip, 30 minutes prior to apomorphine challenge

CNC1=Nc2ccc(Cl)cc2C(c2ccccc2)=[N+]([O-])C1 [Chlorodiazepoxide, reference compound]
ED50 (male mice; ip, reference compound): 8 mg/kg

CN1CCC2(CC1)c1c([nH]c3ccccc13)-c1ccc(Cl)cc1N2C [3-Chloro-5,1'-dimethyl-5,6-dihydrospiro[1H-indolo-[3,2-c]quinoline-6,4'-piperidine]dihydrochloride]
ED50 (CK-1 male mice; [1]): 13.2 mg/kg

CN1CCN(C2=Nc3cc(Cl)ccc3Nc3ccccc32)CC1 [Clozapine, reference compound]
ED50 (CK-1 male mice; sc, reference compounds): 8.1 mg/kg

CCN1CCC2(CC1)NC1=CC=CCC1=C1N=c3ccccc3=C12 [1'-Ethyl-5,6-dihydrospiro[1H-indolo[3,2-c]quinoline-6,4'-piperidine]]
supramaximal electroshock, normalized percent inhibition relative to vehicle control (male mice; at 60 mg/kg, i.p.): -80%

CN1CCC2(CC1)c1c([nH]c3ccccc13)-c1ccccc1N2C [1',5-Dimethyl-5,6-dihydrospiro[1H-indolo[3,2-c]quinoline-6,4'-piperidine]fumarate, hemiethanolate]
ED50 (mice; Mus musculus, sc): 10.3 mg/kg | ED50 (CK-1 male mice; [1]): 19.8 mg/kg

c1ccc(CCN2CCC3(CC2)Nc2ccccc2-c2[nH]c4ccccc4c23)cc1 [1'-Phenethyl-5,6-dihydrospiro[1H-indolo[3,2-c]quinoline-6,4'-piperidine]fumarate]
PQW (mice; at 5 mg/kg): -55%

CC(C)=CCN1CCC2(C)c3cc(O)ccc3CC1C2C (stereo not drawn) [Pentazocine, reference compound]
PQW (mice; at 1.3 mg/kg, reference compound): -50%

CC(=O)N1CCC2(CC1)NC1=CC=CCC1=C1N=c3ccccc3=C12 [1'-Acetyl-5,6-dihydrospiro[1H-indolo[3,2-c]quinoline-6,4'-piperidine]]
PQW (mice; at 20 mg/kg): -66%
